Experimental data as given in patent US20240059703A1 (AMGEN INC., priority 2021, published 2024).

molecular target: KRAS G12C (Homo sapiens (Human), UniProt P01116, C118A/G12C); test: 2 h coupled exchange assay; format: biochemical; conditions: Avg 2 h Coupled exchange IC50, 2 h compound pre-incubation
Protocol: The term “2 h coupled exchange assay” or “20 h coupled exchange assay” as used herein refers to the assay described in the Section entitled “BIOLOGICAL EVALUATION.”

KRAS G12C, sequence (P01116 other isoform, or with tags, fused parts or gaps G12C/C118A): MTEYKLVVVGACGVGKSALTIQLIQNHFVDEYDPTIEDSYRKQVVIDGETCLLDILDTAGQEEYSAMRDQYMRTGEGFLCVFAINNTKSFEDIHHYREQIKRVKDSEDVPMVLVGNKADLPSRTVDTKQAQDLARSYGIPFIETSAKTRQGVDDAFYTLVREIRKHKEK

`C=CC(=O)N1CC2(CCN(c3nc4cc(-c5scnc5C)cnc4c(-c4ccccc4F)c3Cl)C2)C1` [Example 28-1, 1-(6-(3-chloro-4-(2-fluorophenyl)-7-(4-methylthiazol-5-yl)-1,5-naphthyridin-2-yl)-2,6-diazaspiro[3.4]octan-2-yl)prop-2-en-1-one] and `C=CC(=O)N1CC2(CCN(c3nc4cc(-c5cc(C)nn5C)ccc4c(-c4ccccc4Cl)c3C)C2)C1` [Example 16-2, 1-(6-(4-(2-chlorophenyl)-7-(1,3-dimethyl-1H-pyrazol-5-yl)-3-methyl-2-quinolinyl)-2,6-diazaspiro[3.4]octan-2-yl)-2-propen-1-one] are within 1.5-fold of each other in IC50: 0.655 µM for the first, 0.648 µM for the second.

Compared with `C=CC(=O)N1CC2(CCN(c3nc4cc(-c5ccnn5C)ccc4c(-c4ccc(F)cc4)c3C)C2)C1` [Example 16-3, 1-(6-(4-(4-fluorophenyl)-3-methyl-7-(1-methyl-1H-pyrazol-5-yl)-2-quinolinyl)-2,6-diazaspiro[3.4]octan-2-yl)-2-propen-1-one], `C=CC(=O)N1CC2(CCN(c3nc4cc(-c5ccnn5C)ccc4c(-c4ccccc4Cl)c3C#N)C2C)C1` (stereo not drawn) [Example 17-1, 2-(2-acryloyl-5-methyl-2,6-diazaspiro[3.4]octan-6-yl)-4-(2-chlorophenyl)-7-(1-methyl-1H-pyrazol-5-yl)quinoline-3-carbonitrile] is 1.8-fold lower in IC50: 0.519 µM for the first, 0.293 µM for the second.

`C=CC(=O)N1CC2(CCN(c3nc4c(c(-c5c(C)c(C)cc6cnn(C)c56)c3C)COC(C)(C)C4)C2)C1` (single isomer, unassigned) [Example 14-42, (M)-1-(6-(3,7,7-trimethyl-4-(1,5,6-trimethyl-1H-indazol-7-yl)-7,8-dihydro-5H-pyrano[4,3-b]pyridin-2-yl)-2,6-diazaspiro[3.4]octan-2-yl)-2-propen-1-one] and `C=CC(=O)N1CC2(CCN(c3nc4c(c(-c5c(C)c(Cl)cc6cnn(C)c56)c3C)COC(C)(C)C4)C2)C1` (single isomer, unassigned) [Example 14-88, (M)-1-(6-(4-(5-chloro-1,6-dimethyl-1H-indazol-7-yl)-3,7,7-trimethyl-7,8-dihydro-5H-pyrano[4,3-b]pyridin-2-yl)-2,6-diazaspiro[3.4]octan-2-yl)-2-propen-1-one] are within 1.5-fold of each other in IC50: 7.81 µM for the first, 10.4 µM for the second.

Compared with `C=CC(=O)N1CC2(CCN(c3nc4c(c(-c5c(C)ccc6cnn(C(F)F)c56)c3C#N)COC(C)(C)C4)C2)C1` [Example 14-83, 4-(1-(difluoromethyl)-6-methyl-1H-indazol-7-yl)-7,7-dimethyl-2-(2-(2-propenoyl)-2,6-diazaspiro[3.4]octan-6-yl)-7,8-dihydro-5H-pyrano[4,3-b]pyridine-3-carbonitrile], `C=CC(=O)N1CC2(CCN(c3nc4c(c(-c5c(C)ccc6cn[nH]c56)c3C#N)C[C@H]3C[C@@H]4C3(C)C)C2)C1` (single isomer, unassigned) [Example 14-52] is 2.4-fold higher in IC50: 0.432 µM for the first, 1.02 µM for the second.

same assay, conditions: Avg 2 h Coupled exchange IC50, 2 h compound pre-incubation, SOS-mediated nucleotide exchange

Going from `C=CC(=O)N1CC2(CCN(c3nc4c(c(-c5cc(O)ccc5C)c3C#N)[C@H]3CC[C@@H]4C3)C2)C1` (single isomer, unassigned) [Example 14-13] to `C=CC(=O)N1CC2(CCN(c3nc4c(c(-c5cc(O)ccc5C)c3C#N)C[C@H]3C[C@@H]4C3)C2)C1` (single isomer, unassigned) [Example 13-125], the IC50 rises from 2.84 µM to 12.6 µM (4.4-fold). The first is the more potent here.

Going from `C=CC(=O)N1CC2(CCN(c3nc4c(c(-c5cc(Cl)cc6ccn(C)c56)c3C#N)COC(C)(C)C4)C2)C1` [Example 12-8, 4-(5-chloro-1-methyl-1H-indol-7-yl)-7,7-dimethyl-2-(2-(2-propenoyl)-2,6-diazaspiro[3.4]octan-6-yl)-7,8-dihydro-5H-pyrano[4,3-b]pyridine-3-carbonitrile] to `C=CC(=O)N1CC2(CCN(c3nc4c(c(-c5cc(C)cc6ccccc56)c3C#N)COC(C)(C)C4)C2)C1` [Example 13-33, 7,7-dimethyl-4-(3-methyl-1-naphthalenyl)-2-(2-(2-propenoyl)-2,6-diazaspiro[3.4]octan-6-yl)-7,8-dihydro-5H-pyrano[4,3-b]pyridine-3-carbonitrile], the IC50 rises from 0.399 µM to 0.676 µM (1.7-fold). The first is the more potent here.

Going from `C=CC(=O)N1CC2(CCN(c3nc4c(c(-c5cc(O)cc6ccccc56)c3C#N)C[C@H]3C[C@@H]4C3(C)C)C2)C1` (single isomer, unassigned) [Example 13-130] to `C=CC(=O)N1CC2(CCN(c3nc4c(c(-c5cccc(F)c5O)c3C#N)C[C@H]3C[C@@H]4C3(C)C)C2)C1` (single isomer, unassigned) [Example 2-72], the IC50 falls from 13.1 µM to 0.651 µM (20-fold). The second is the more potent here.

First: C=CC(=O)N1CC2(CCN(c3nc4c(c(-c5cc(O)ccc5Cl)c3C)COC(C)(C)C4)C2)C1 [Example 2-35, 1-(6-(4-(2-chloro-5-hydroxyphenyl)-3,7,7-trimethyl-7,8-dihydro-5H-pyrano[4,3-b]pyridin-2-yl)-2,6-diazaspiro[3.4]octan-2-yl)-2-propen-1-one]
Second: C=CC(=O)N1CC2(CCN(c3nc4c(c(-c5c(C)ccc6[nH]ncc56)c3Cl)COC(C)(C)C4)C2)C1 (single isomer, unassigned) [Example 2-84, (P)-1-(6-(3-chloro-7,7-dimethyl-4-(5-methyl-1H-indazol-4-yl)-7,8-dihydro-5H-pyrano[4,3-b]pyridin-2-yl)-2,6-diazaspiro[3.4]octan-2-yl)-2-propen-1-one]
The IC50 of the first is 4.3-fold lower: 0.186 µM for the first, 0.808 µM for the second. The first is the more potent here.

Compared with `C=CC(=O)N1CC2(CCN(c3nc4c(c(-c5c(C)ccc6cnn(C)c56)c3C#N)C[C@H]3C[C@@H]4C3)[C@H]2C)C1` (single isomer, unassigned) [Example 13-31], `C=CC(=O)N1CC2(CCN(c3nc4c(c(-c5c(C)ccc6cnn(C)c56)c3C#N)C[C@H]3C[C@@H]4C3)C2)C1` (single isomer, unassigned) [Example 13-117] is 24-fold higher in IC50: 0.652 µM for the first, 15.8 µM for the second.

Compared with `C=CC(=O)N1CC2(CCN(c3nc4c(c(-c5c(C)ccc6cnn(C)c56)c3C#N)CCC4(C)C)C2)C1` (single isomer, unassigned) [Example 13-102, (P)-2-(2-acryloyl-2,6-diazaspiro[3.4]octan-6-yl)-4-(1,6-dimethyl-1H-indazol-7-yl)-7,7-dimethyl-6,7-dihydro-5H-cyclopenta[b]pyridine-3-carbonitrile], `C=CC(=O)N1CC2(CCN(c3nc4c(c(-c5c(C)ccc6cnn(C)c56)c3C#N)COC4(C)C)C2)C1` (single isomer, unassigned) [Example 13-57, (M)-4-(1,6-dimethyl-1H-indazol-7-yl)-7,7-dimethyl-2-(2-(2-propenoyl)-2,6-diazaspiro[3.4]octan-6-yl)-5,7-dihydrofuro[3,4-b]pridine-3-carbonitrile] is 390-fold lower in IC50: 140 µM for the first, 0.361 µM for the second.

Compared with `C=CC(=O)N1CC2(CCN(c3nc4c(c(-c5ccnn5C)c3C#N)CC[C@@H](c3ccnn3C)C4)C2)C1` (single isomer, unassigned) [Example 13-29], `C=CC(=O)N1CC2(CCN(c3nc4c(c(-c5c(C)ccc6cnn(C)c56)c3C#N)CC[C@@H]3C[C@H]43)C2)C1` (single isomer, unassigned) [Example 13-134, (6a,7a)-4-(1,6-dimethyl-1H-indazol-7-yl)-2-(2-(2-propenoyl)-2,6-diazaspiro[3.4]octan-6-yl)-6,6a,7,7a-tetrahydro-5H-cyclopropa[h]quinoline-3-carbonitrile] is 180-fold higher in IC50: 0.217 µM for the first, 39.3 µM for the second.

Compared with `C=CC(=O)N1CC2(CCN(c3nc4c(c(-c5c(C)c(Cl)cc6cnn(C)c56)c3C)CCN(C(C)C)C4)C2)C1` (single isomer, unassigned) [Example 12-24, (M)-1-(6-(4-(5-chloro-1,6-dimethyl-1H-indazol-7-yl)-3-methyl-7-(2-propanyl)-5,6,7,8-tetrahydro-1,7-naphthyridin-2-yl)-2,6-diazaspiro[3.4]octan-2-yl)-2-propen-1-one], `C=CC(=O)N1CC2(CCN(c3nc4c(c(-c5c(C)ccc6cnn(C)c56)c3C#N)C[C@H]3C[C@@H]4C3(C)C)C2)C1` (single isomer, unassigned) [Example 13-105] is 290-fold higher in IC50: 0.05 µM for the first, 14.7 µM for the second.

First: C=CC(=O)N1CC2(CCN(c3nc4c(c(-c5c(O)ccc6ccccc56)c3C#N)C[C@H]3C[C@@H]4C3)C2)C1 (single isomer, unassigned) [Example 13-36]
Second: C=CC(=O)N1CC2(CCN(c3nc4c(c(-c5c(F)ccc6cc[nH]c56)c3C#N)C[C@H]3C[C@@H]4C3(C)C)C2)C1 [Example 12-15, (1R,9R)-6-(6-fluoro-1H-indol-7-yl)-10,10-dimethyl-4-(2-(2-propenoyl)-2,6-diazaspiro[3.4]octan-6-yl)-3-azatricyclo[7.1.1.0^2,7] undeca-2,4,6-triene-5-carbonitrile]
The IC50 of the first is 2.1-fold higher: 0.991 µM for the first, 0.464 µM for the second.

Going from `C=CC(=O)N1CC2(CCN(c3nc4cc(OC)cnc4c(-c4c(C)ccc5[nH]ncc45)c3C)C2)C1` [Example 2-51, 1-(6-(7-methoxy-3-methyl-4-(5-methyl-1H-indazol-4-yl)-1,5-naphthyridin-2-yl)-2,6-diazaspiro[3.4]octan-2-yl)-2-propen-1-one] to `C=CC(=O)N1CC2(CCN(c3nc4c(c(-c5cccc6c(O)cccc56)c3C#N)COC(C)(C)C4)C2)C1` [Example 12-33, 4-(5-hydroxy-1-naphthalenyl)-7,7-dimethyl-2-(2-(2-propenoyl)-2,6-diazaspiro[3.4]octan-6-yl)-7,8-dihydro-5H-pyrano[4,3-b]pyridine-3-carbonitrile], the IC50 rises from 0.267 µM to 0.527 µM (2-fold).

Compared with `C=CC(=O)N1CC2(CCN(c3cc4c(c(-c5cc(O)cc6ccccc56)c3C#N)OCCC4)C2)C1` (single isomer, unassigned) [Example 2-53, (P)-8-(3-hydroxy-1-naphthalenyl)-6-(2-(2-propenoyl)-2,6-diazaspiro[3.4]octan-6-yl)-3,4-dihydro-2H-chromene-7-carbonitrile], `C=CC(=O)N1CC2(CCN(c3nc4c(c(-c5c(C)ccc6cnn(C)c56)c3C#N)C[C@H]3C[C@@H]4C3)[C@H]2C)C1` [Example 13-30, (1S,9R)-6-(1,6-dimethyl-1H-indazol-7-yl)-4-((5S)-5-methyl-2-(2-propenoyl)-2,6-diazaspiro[3.4]octan-6-yl)-3-azatricyclo[7.1.1.0^2,7]undeca-2,4,6-triene-5-carbonitrile] is 9.9-fold lower in IC50: 7.11 µM for the first, 0.715 µM for the second. The second is the more potent here.
